Test results taken from patent publication US20200165194A1, “ADDITIVE COMPOSITION FOR CULTURE MEDIUM, ADDITIVE COMPOUND FOR CULTURE MEDIUM, AND METHOD FOR CULTURE OF CELLS OR TISSUE USING SAME” (NISSAN CHEMICAL CORPORATION, priority 2017, published 2020).
Read-outs that look alike come from different tables or passages of the source.

How the values were obtained:
Assay type in all cases: cell-based
[1] = system: human prostate cancer-derived cell DU145; assay: Various human cancer cells-2, 3D culture, ATP assay (Experimental Example 6); conditions: 4 days
[2] = system: human epithelial-like cell cancer-derived cell line A431; assay: as above; conditions: 4 days; for viability at 5 µM: Homo sapiens, A-431, 96 h, read-out: number of viable cells (RLU), relative value to control (100%)
CD34, CD73, CD29 of hMSC = assay: Human mesenchymal stem cells-1: cell surface markers by FACS after 3D culture (Experimental Example 9); conditions: for CD34+ (negative rate) / CD29+ (positive rate) / CD73+ (positive rate): hMSC after 3D culture, 10 μM, 7 days; for CD34+ (negative rate): no addition 0.9%; for CD29+ (positive rate): no addition 94.6%; for CD73+ (positive rate): no addition 99.9%; for undifferentiated state of hMSCs (in words): surface markers CD34, CD73, CD29 did not change
Description: Human mesenchymal stem cells (hMSC, manufactured by TOYOBO) were precultured by a single layer culture method (2D) using an MF-medium mesenchymal stem cell proliferation medium (manufactured by TOYOBO). In three-dimensional culture method (3D), hMSC were suspended in a medium composition added with deacylated gellan gum, and seeded in a […] flat bottom Ultr-low Attachment surface plate (manufactured by Corning Incorporated, #3471) at 1.2×10^5 cells/2 mL/well. In 2D, hMSC were suspended in a deacylated gellan gum-free medium composition, and seeded in a 6-well flat bottom plate (manufactured by Corning Incorporated, #3516) at 4.0×10^4 cells/2 mL/well. […] As a control, DMSO was added at a final concentration of 0.1%. Seven days later, in the three-dimensional culture method, cells were collected from the wells, washed with PBS, and the supernatant was removed. Then, a trypsin 0.25 w/v % trypsin-1 mmol/L EDTA (ethylenediaminetetraacetic acid) solution (manufactured by Wako Pure Chemical Industries, Ltd.) was added and the cells were incubated at 37° C. for 2-5 min to disperse the spheres into single cells. The medium was added, and the mixture was centrifuged to remove the supernatant. Thereafter, the cells were resuspended in the same medium, a part was suspended in Trypan Blue (manufactured by Wako Pure Chemical Industries, Ltd.), and the number of viable cells was counted using automatic cell counter TC20 (manufactured by BIO-RAD).
CD34 antibody (APC, manufactured by BD Bioscience), CD73 (BV421, manufactured by BD Bioscience), CD29 (BB515, manufactured by BD Bioscience) were added to the above-mentioned cell suspension, and the mixture was incubated on ice for 30 min. The cells were washed twice with 2% SM buffer (2% FBS/PBS), SM containing 1 μg/mL of Propidium Iodide (PI) was added, and the mixture was analyzed with FACSAria (manufactured by Becton Dickinson). The cell number with compound non-addition (control) was taken as 1, and relative value with addition of each compound is calculated in the fifteenth table. The positive rates or negative rates of CD34, CD73, and CD29 of cells after three-dimensional culture (3D) under the conditions with no addition or addition of the compound are shown in the sixteenth table.

[3] = system: SKOV3 cells (human ovarian cancer-derived cell line); assay: Cell proliferation activity in three-dimensional medium FCeM, ATP assay (Experimental Example 1); conditions: SKOV3, 3D medium FCeM, 4 days, DMSO control = 100%, average of two tests
Description: A cell proliferation promoting effect when the compound to be used in the present invention was added to a three-dimensional medium was studied. Specifically, precultured (adhesion cultured) SKOV3 cells (human ovarian cancer-derived cell line) were recovered and suspended in a three-dimensional cell culture medium (“FCeM (registered trade mark)” (Nissan chemical corporation)) to prepare a cell suspension. […] The cell suspension seeded in the plate was stood overnight at 37° C., 5% CO2. Then, a DMSO diluted solution (4.44 μL) of the compound to be used in the present invention was added at a final concentration of 5 μM (or two steps of […] and 10 μM) (no stirring after addition). After addition of each compound, the mixtures were stood for 4 days at 37° C., 5% CO2. […] The luminescence intensity (RLU value) was measured by FlexStation3 (manufactured by Molecular Devices), and cell proliferation was evaluated.
The proliferation rate was calculated based on the control (cells added with DMSO without containing the compound to be used in the present invention) as the standard (100%). The values shown in the tables are average values of the results of two tests.

[4] = low attachment flat bottom plate (gellan gum medium), 10 μM
[5] = low attachment U-bottom plate, 5 μM
[6] = low attachment flat bottom plate (gellan gum medium), 5 μM
[7] = low attachment U-bottom plate, 10 μM

Compound	number of viable cells (RLU), relative value to control (100%) [1, 4]	number of viable cells (RLU), relative value to control (100%) [2, 7]	number of viable cells (RLU), relative value to control (100%) [2, 4]	CD34+ (negative rate) (CD34, CD73, CD29 of hMSC)	CD29+ (positive rate) (CD34, CD73, CD29 of hMSC)	CD73+ (positive rate) (CD34, CD73, CD29 of hMSC)	undifferentiated state of hMSCs (in words) (CD34, CD73, CD29 of hMSC)	further results
CC/C(=N\NC(=O)NCc1ccccc1)c1ccc(O)c(C)c1O [k-1:I-1]	⊙	⊙	⊙					viability at 5 µM ([1]; Homo sapiens, DU-145, 96 h, low attachment U-bottom plate, 5 μM, read-out: number of viable cells (RLU), relative value to control (100%)): < 119%; viability at 10 µM ([1]; Homo sapiens, DU-145, 96 h, low attachment U-bottom plate, 10 μM, read-out: number of viable cells (RLU), relative value to control (100%)): 120 to 150%; viability at 5 µM ([1]; Homo sapiens, DU-145, 96 h, low attachment flat bottom plate (gellan gum medium), 5 μM, read-out: number of viable cells (RLU), relative value to control (100%)): 120 to 150%; viability at 5 µM [2, 5]: 120 to 150%; viability at 5 µM [2, 6]: < 119%
CC/C(=N\NC(=O)Nc1ccccc1)c1ccc(O)c(C)c1O [k-1:H-10]				0.7%	87.6%	99.1%	promote cell proliferation while maintaining undifferentiated state of hMSCs	proliferation rate (%) (5 μM) ([3]; 5 μM): 127.9%; proliferation rate (%) (10 μM) ([3]; 10 μM): 138.4%
CC/C(=N\NC(=O)C(C)Nc1ccccc1)c1ccc(O)c(C)c1O (stereo not drawn) [k-1:B-1]	⊙	⊙	⊙					number of viable cells (RLU), relative value to control (100%) [1, 5]: ⊙; number of viable cells (RLU), relative value to control (100%) [1, 7]: ⊙; number of viable cells (RLU), relative value to control (100%) [1, 6]: ⊙; number of viable cells (RLU), relative value to control (100%) [2, 5]: ⊙; number of viable cells (RLU), relative value to control (100%) [2, 6]: ⊙
CCC(=NNC(=O)C(CC)Nc1ccccc1)c1ccc(O)c(C)c1O (stereo not drawn) [k-1:H-7]				3%	94.6%	100%	promote cell proliferation while maintaining undifferentiated state of hMSCs	proliferation rate (%) ([3]; compound 5 μM): 236.46%
